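96-well plates; 48 h exposure; 5 concentrations. Endpoints by linear interpolation between flanking doses. Not reached: highest tested concentration assigned. Abbreviation: GI50, concentration required for 50% inhibition of growth.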 Activity calls are given as the source filed them. No stated cut-off is given here; in the data, active = GI50 up to about 1.1 µM and inactive = higher.
Assays:
Assay in all cases: NCI-60 cell line screen, 48 h
786-0 = tested on: 786-0
A498 = tested on: A498
A549 = tested on: A549
COLO 205 = tested on: COLO 205
DU-145 = tested on: DU-145
HCT-116 = tested on: HCT-116
HOP-92 = tested on: HOP-92
HT-29 = tested on: HT-29
KM12 = tested on: KM12
M14 = tested on: M14
MDA-N = tested on: MDA-N
NCI-H226 = tested on: NCI-H226
NCI-H522 = tested on: NCI-H522
PC-3 = tested on: PC-3
SF-295 = tested on: SF-295
SF-539 = tested on: SF-539
SK-MEL-2 = tested on: SK-MEL-2
SK-MEL-5 = tested on: SK-MEL-5
SN12C = tested on: SN12C
U-251 = tested on: U-251

Measured: GI50

CCC1([N+](=O)[O-])CC2C=CC1C2 (stereo not drawn)
inactive: 786-0 > 100 µM | A498 > 100 µM | A549 > 100 µM | COLO 205 > 100 µM | DU-145 > 100 µM | HCT-116 > 100 µM | HOP-92 62.7 µM | HT-29 > 100 µM | KM12 > 100 µM | M14 > 100 µM | MDA-N > 100 µM | NCI-H226 > 100 µM | NCI-H522 > 100 µM | PC-3 > 100 µM | SF-295 > 100 µM | SF-539 > 100 µM | SK-MEL-2 > 100 µM | SK-MEL-5 > 100 µM | SN12C > 100 µM | U-251 > 100 µM

N#CC1C(=O)N(c2ccccc2)NC12OC(=O)c1ccncc12 (stereo not drawn)
inactive: 786-0 > 20 µM | A498 > 20 µM | A549 > 20 µM | COLO 205 > 20 µM | DU-145 > 20 µM | HCT-116 > 20 µM | HOP-92 > 20 µM | HT-29 > 20 µM | M14 > 20 µM | MDA-N > 20 µM | NCI-H226 > 20 µM | NCI-H522 > 20 µM | PC-3 > 20 µM | SF-295 > 20 µM | SF-539 > 20 µM | SK-MEL-2 > 20 µM | SK-MEL-5 > 20 µM | SN12C > 20 µM | U-251 > 20 µM

C=CCc1cccc2cc(C(=O)NCc3ccccc3)c(=N)oc12
inactive: 786-0 29.1 µM | A498 23.4 µM | A549 40.1 µM | COLO 205 40.6 µM | DU-145 37.1 µM | HCT-116 24.2 µM | HOP-92 48.5 µM | HT-29 34.4 µM | KM12 34.4 µM | M14 40.6 µM | MDA-N 41.4 µM | NCI-H226 24.2 µM | NCI-H522 18.1 µM | PC-3 18.6 µM | SF-539 47.5 µM | SK-MEL-2 12.1 µM | SK-MEL-5 25.5 µM | SN12C 27.6 µM | U-251 38.2 µM

N#CC(c1ccccc1)N(CCc1ccccc1)C(=O)c1ccccc1 (stereo not drawn)
inactive: 786-0 27.7 µM | A498 > 100 µM | A549 > 100 µM | COLO 205 > 100 µM | DU-145 > 100 µM | HCT-116 > 74.8 µM | HOP-92 20 µM | HT-29 > 100 µM | KM12 > 100 µM | M14 > 100 µM | MDA-N > 100 µM | NCI-H226 > 58.7 µM | NCI-H522 > 59.2 µM | PC-3 > 93.8 µM | SF-295 38.5 µM | SF-539 31.3 µM | SK-MEL-2 > 64.7 µM | SK-MEL-5 > 100 µM | SN12C > 100 µM | U-251 52.4 µM

COc1ccc([C@H]2CC(=O)C[C@H](c3ccc(OC)cc3)C23C(=O)c2ccccc2C3=O)cc1
inactive: 786-0 5.57 µM | A498 > 100 µM | A549 5.97 µM | COLO 205 2.64 µM | DU-145 16.4 µM | HCT-116 4.46 µM | HOP-92 5.74 µM | HT-29 3.46 µM | KM12 4.13 µM | M14 6.34 µM | MDA-N 2.07 µM | NCI-H226 6.11 µM | NCI-H522 3.16 µM | PC-3 4.21 µM | SF-295 3.95 µM | SF-539 5.04 µM | SK-MEL-2 3.3 µM | SK-MEL-5 3.46 µM | SN12C 7.57 µM | U-251 4.24 µM
